Target: T1, Dual specificity protein kinase TTK (Homo sapiens, UniProt P33981)
T1 sequence (P33981 whole entry): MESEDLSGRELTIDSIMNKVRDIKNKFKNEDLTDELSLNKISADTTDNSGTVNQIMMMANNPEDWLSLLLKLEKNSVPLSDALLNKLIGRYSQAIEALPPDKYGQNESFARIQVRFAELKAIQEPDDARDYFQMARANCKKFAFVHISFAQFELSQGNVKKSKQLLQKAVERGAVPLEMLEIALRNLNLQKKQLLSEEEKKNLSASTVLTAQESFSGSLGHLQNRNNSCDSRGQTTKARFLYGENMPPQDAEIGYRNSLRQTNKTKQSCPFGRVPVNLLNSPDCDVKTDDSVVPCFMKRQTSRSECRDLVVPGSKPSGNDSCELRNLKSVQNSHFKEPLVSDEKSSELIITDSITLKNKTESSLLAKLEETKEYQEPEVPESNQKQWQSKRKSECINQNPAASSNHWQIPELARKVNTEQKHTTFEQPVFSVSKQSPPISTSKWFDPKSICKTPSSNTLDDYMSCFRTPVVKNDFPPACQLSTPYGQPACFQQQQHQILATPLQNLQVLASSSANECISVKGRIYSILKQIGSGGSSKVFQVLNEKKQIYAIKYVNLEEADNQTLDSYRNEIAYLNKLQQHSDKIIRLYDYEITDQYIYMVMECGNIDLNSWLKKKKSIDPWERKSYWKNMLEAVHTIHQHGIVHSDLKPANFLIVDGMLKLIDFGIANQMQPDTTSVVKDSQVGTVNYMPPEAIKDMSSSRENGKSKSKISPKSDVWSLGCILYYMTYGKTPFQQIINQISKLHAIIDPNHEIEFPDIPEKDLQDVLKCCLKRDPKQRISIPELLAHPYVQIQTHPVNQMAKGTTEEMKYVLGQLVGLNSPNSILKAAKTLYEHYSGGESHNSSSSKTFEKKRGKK
Experiment: Measurement of Inhibition of MPS1 Kinase
Method: The reaction was carried out for 60 min at room temperature and stopped by the addition of buffer (10 μl) containing 20 mM EDTA, 0.05% (v/v) Brij-35, in 0.1M HEPES-buffered saline (Free acid, Sigma, UK). […] The % inhibition of the compounds is calculated relative to the means of selected control wells. […] The % inhibitions at each concentration are then fitted to a 4 parameter logistic fit: y=(a+((b−a)/(1+((c/x^d)))) where a=asym min, b=asym max, c=IC50 and d=hill coefficient.

IC50: 3 nM
Compound: COc1cc(-c2nnc3n2CCN(C(=O)CC(C)(C)C)C3)ccc1Nc1cc2cc(-c3cnn(CC(C)(C)O)c3)ccc2cn1 [US10188642, Example 55]
